According to patent publication US8957091B2, “Use of quinolinone derivatives as a research tool” (Centre National de la Recherche Scientifique, priority 2010, dated 2015):
“Also recorded” adds a separate entry of the source. Where two headings read alike, the source gives them in different places. One block for each molecule: values may come before it.

Experiments:
Assay type in all cases: cell-based
Smo2 sites = target: T1, Smo2 sites (Mus musculus, UniProt P56726); assay: Inhibition of C3H10T1/2 differentiation (alkaline phosphatase activity) induced by compound 1 or compound 6; conditions: for selectivity between Smo1 and Smo2 sites (in words): Smo1 stimulated by SAG, Smo2 stimulated by compound 1; for C3H10T1/2 cell differentiation IC50 Smo1/IC50 Smo2: ratio of mean IC50 values, Smo1 stimulated by SAG 0.1 μM, Smo2 by compound 1 1 μM
T1 construct: host or cells: C3H10T1/2
Protocol: (§1) The C3H10T1/2 cells were seeded onto 96-well plates at a density of 5×10^3 cells per well, 24 hours before the addition of the test compounds at a concentration ranging from 10 nM to 10 μM in DMEM culture medium supplemented with 10% of fetal calf serum. The tests were carried out in quadruplicate. The plates were then incubated for 5-6 days at a temperature of 37° C. under an atmosphere of 5% CO2. The cells were then washed in cold phosphate buffer (phosphate buffered saline: PBS) and then lysed by sonication at 4° C. in 50 μl of a solution containing 0.9% of NaCl and 0.2% of Triton X-100.
(§2) The alkaline phosphatase in the resulting lysates was then measured according to the method described by Pepinsky et al. (Pepinsky et al. 1998). After the addition of […] of reaction buffer (200 mM Tris-HCL; pH 10.5; 0.4 M of 2-amino-2-methylpropanol and 8 mM of MgCl2) and of 50 μl of substrate (4 mM of disodium p-nitrophenyl phosphate), the lysates were incubated at 37° C. for 30-60 min and then the optical density was read at a wavelength of 415 nm.

Smo1 sites = target: T2, Smo1 sites (Mus musculus, UniProt P56726); assay: Inhibition of C3H10T1/2 differentiation (alkaline phosphatase activity) induced by SAG; conditions: for IC50: alkaline phosphatase activity induced by SAG (0.1 μM)
T2 construct: host or cells: C3H10T1/2
Protocol: as §1, §2

[1] = system: C3H10T1/2 mesenchymal stem cells; assay: Modulation by IWR1 of differentiation stimulated by compound 1 or SAG
Protocol: For the experiments in the presence of forskolin, compound 1 (1 μM) and SAG (0.3 μM) were used to stimulate differentiation in the presence of increasing concentrations (1, 3 and 10 μM) of forskolin (Sigma). The IWR1 compound (Sigma), for its part, was used at 10 μM on an activation by compound 1 at 1 μM or SAG at 0.1 μM. The alkaline phosphatase activity was measured as previously.

C3H10T1/2 cells = assay: Activation of osteogenic differentiation of C3H10T1/2 cells (alkaline phosphatase activity); conditions: for stimulation of osteogenesis: induction of alkaline phosphatase after 6 days
Protocol: The pluripotent fibroblast cell line C3H10T1/2 (ATCC) was cultured under the conditions recommended by the ATCC. The stimulation of the differentiation of these cells was carried out using increasing concentrations of compounds according to the methods described by Chen et al. and Frank-Kamenetsky et al. (Chen et al. 2002; Frank-Kamenetsky et al. 2002). The activation by the compounds of general formula (I) causes differentiation of the cell line and enables the latter to express alkaline phosphatase. It was thus possible to measure the activity of the compounds via the measurement of alkaline phosphatase activity. By way of comparison, the activity of the SAG compound (Chen et al. 2002), an Smo activator, was tested under the same conditions as those used to test the compounds of general formula (I).
as §1, §2

[2] = alkaline phosphatase activity induced by compound 1 (1 μM), C3H10T1/2 cells, read-out: Smo2 IC50
[3] = alkaline phosphatase activity induced by compound 1 (1 μM), mean ± SEM of 2 to 6 experiments, read-out: IC50 μM, C3H10T1/2, Compound 1
[4] = alkaline phosphatase activity induced by compound 6 (3 μM), mean ± SEM of 2 to 6 experiments, read-out: IC50 μM, C3H10T1/2, Compound 6
[5] = antagonist at 10 μM, induced by compound 1 (1 μM), C3H10T1/2 cells
[6] = C3H 10T1/2, antagonist at 10 μM, induced by compound 1 (1 μM), C3H10T1/2 cells, read-out: Smo2 Inhibition 10 μM
[7] = C3H 10T1/2, antagonist at 10 μM, induced by SAG (0.1 μM), C3H10T1/2 cells, read-out: Smo1 Inhibition 10 μM

T1 sequence (P56726 33-793): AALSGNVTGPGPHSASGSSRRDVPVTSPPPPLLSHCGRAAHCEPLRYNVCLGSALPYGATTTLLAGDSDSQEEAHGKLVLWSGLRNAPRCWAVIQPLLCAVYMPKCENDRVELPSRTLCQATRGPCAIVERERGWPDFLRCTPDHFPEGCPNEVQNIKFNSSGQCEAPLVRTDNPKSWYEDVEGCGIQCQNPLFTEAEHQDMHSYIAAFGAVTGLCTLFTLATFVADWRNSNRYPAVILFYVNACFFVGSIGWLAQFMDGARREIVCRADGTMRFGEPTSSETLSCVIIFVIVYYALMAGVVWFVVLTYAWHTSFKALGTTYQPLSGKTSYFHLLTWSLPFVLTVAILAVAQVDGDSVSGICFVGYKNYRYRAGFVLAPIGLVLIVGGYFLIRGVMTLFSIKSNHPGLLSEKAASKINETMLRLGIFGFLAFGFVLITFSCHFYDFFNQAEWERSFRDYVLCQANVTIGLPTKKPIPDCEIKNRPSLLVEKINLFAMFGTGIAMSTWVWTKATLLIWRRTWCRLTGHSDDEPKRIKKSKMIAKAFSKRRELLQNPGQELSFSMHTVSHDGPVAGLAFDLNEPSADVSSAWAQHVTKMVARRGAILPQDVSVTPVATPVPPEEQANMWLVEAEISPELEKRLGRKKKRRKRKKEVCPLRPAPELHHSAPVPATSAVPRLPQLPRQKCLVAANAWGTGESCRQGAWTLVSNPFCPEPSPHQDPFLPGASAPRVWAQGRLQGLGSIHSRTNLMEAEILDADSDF
T2 sequence (P56726 33-793): as above

SMILES: COc1cccc(CN(C(=O)CC(C)(C)C)[C@H]2C[C@@H](C(=O)N3CCNCC3)N(Cc3ccc4c(c3)OCO4)C2)c1 [Cur61414]
selectivity between Smo1 and Smo2 sites (in words) (Smo2 sites): much more selective with respect to Smo1 sites than Smo2 sites | IC50 (Smo2 sites; [2]): 5.7 ± 1.6 µM | IC50 (Smo2 sites; [3]): 5.7 ± 1.6 µM | IC50 (Smo2 sites; [4]): 7 ± 1 µM | Smo2 Inhibition 10 μM (Smo2 sites; [5]): weaker inhibition | C3H10T1/2 cell differentiation IC50 Smo1/IC50 Smo2 (Smo2 sites): 17 | selectivity for the Smo1 site compared with the Smo2 site (Smo1 sites; SAG versus compound 1 stimulation): 17 fold

SMILES: CC1=C2C[C@H]3[C@@H](CC=C4C[C@@H](O)CC[C@@]43C)[C@@H]2CC[C@]12O[C@@H]1C[C@H](C)CN[C@H]1[C@H]2C [Cyclopamine, cyclopamine]
inhibition at 10 µM (Smo2 sites; C3H 10T1/2, read-out: Smo2 Inhibition 10 μM): 48% | Smo2 Inhibition 10 μM (Smo2 sites; [5]): weaker inhibition | inhibition at 10 µM (Smo1 sites; C3H 10T1/2, read-out: Smo1 Inhibition 10 μM): 98% | Smo1 Inhibition 10 μM (Smo1 sites; antagonist at 10 μM, induced by SAG (0.1 μM), C3H10T1/2 cells): complete inhibition

SMILES: O=C(Nc1cccc2cccnc12)c1ccc(N2C(=O)[C@@H]3[C@H](C2=O)[C@@H]2C=C[C@H]3C2)cc1 [IWR1]
effect on the activity of SAG ([1]; IWR1 10 μM, SAG at 0.1 μM): does not modify; also recorded: does not affect | effect on the activity of compound 1 (in words) ([1]; IWR1 10 μM, compound 1 at 1 μM): inhibits the activity of compound 1 | reduction of the activity of compound 1 ([1]; IWR1 10 μM, compound 1 at 1 μM): 60% | IC50 ([1]; dose-response curve of compound 1 with IWR1, read-out: IC50 with respect to alkaline phosphatase inhibition): 2.5 µM

SMILES: CCCCCCn1c(=O)c(C(=O)Nc2ccc(C(=O)OCCC)cc2)c(O)c2ccccc21 [compound 1, propyl 4-(1-hexyl-4-hydroxy-2-oxo-1,2-dihydroquinoline-3-carboxamido)benzoate]
maximum stimulation compared with SAG (C3H10T1/2 cells; dose-response curves produced in parallel): greater than that of the Smo agonist SAG | stimulation of osteogenesis (C3H10T1/2 cells): have the capacity to stimulate osteogenesis

SMILES: CCCCCCn1c(=O)c(C(=O)Nc2ccc(C(=O)OC(C)(C)C)cc2)c(O)c2ccccc21 [compound 6, tert-butyl 4-(1-hexyl-4-hydroxy-2-oxo-1,2-dihydroquinoline-3-carboxamido)benzoate]
stimulation of osteogenesis (C3H10T1/2 cells): have the capacity to stimulate osteogenesis

Further lines, with some results ahead:

inhibition at 10 µM (Smo2 sites; [6]): 95% | selectivity between Smo1 and Smo2 sites (in words) (Smo2 sites): comparable affinities | C3H10T1/2 cell differentiation IC50 Smo1/IC50 Smo2 (Smo2 sites): 2.5 | IC50 (Smo2 sites; response induced by compound 1, read-out: affinity (IC50) for compound 1): 0.32 µM | IC50 (Smo2 sites; response induced by compound 6, read-out: affinity (IC50) for compound 6): 0.4 µM | inhibition at 10 µM (Smo1 sites; [7]): 100% | IC50 (Smo1 sites; C3H10T1/2 cells): 0.13 ± 0.05 µM
SMILES: COc1cc(C(=O)NC(=O)Nc2cccc(NC(=O)c3ccccc3)c2)cc(OC)c1OC [MRT-14]

C3H10T1/2 cell differentiation IC50 Smo1/IC50 Smo2 (Smo2 sites): 0.08
SMILES: COc1cc(C(=O)NC(=S)Nc2cccc(NC(=O)c3ccc(-c4ccc(F)cc4)cc3)c2)cc(OC)c1OC [MRT-79]
selectivity between Smo1 and Smo2 sites (in words) (Smo2 sites): more selective with respect to Smo2 sites than the Smo1 sites

inhibition at 10 µM (Smo2 sites; [6]): 100% | IC50 (Smo2 sites; [3]): 0.06 µM | IC50 (Smo2 sites; [4]): 0.06 µM | times more selective with respect to Smo2 sites (Smo2 sites; compound 1 versus SAG stimulation): 1.3 times | C3H10T1/2 cell differentiation IC50 Smo1/IC50 Smo2 (Smo2 sites): 0.9 | inhibition at 10 µM (Smo1 sites; [7]): 100% | IC50 (Smo1 sites; C3H10T1/2 cells): 0.06 ± 0.02 µM
SMILES: COc1cc(C(=O)NC(=S)Nc2ccc(C)c(NC(=O)c3ccc(-c4ccccc4)cc3)c2)cc(OC)c1OC [MRT-81]

inhibition at 10 µM (Smo2 sites; [6]): 71% | selectivity between Smo1 and Smo2 sites (in words) (Smo2 sites): comparable affinities | IC50 (Smo2 sites; [2]): 0.06 ± 0.02 µM | C3H10T1/2 cell differentiation IC50 Smo1/IC50 Smo2 (Smo2 sites): 1.5 | inhibition at 10 µM (Smo1 sites; [7]): 100% | IC50 (Smo1 sites; C3H10T1/2 cells): 0.04 ± 0.01 µM
SMILES: Cc1nn(-c2ccccc2)c(C)c1/C=N/N1CCN(Cc2ccccc2)CC1 [SANT-1]
